{"source": "paper PMC4683533", "about": "“Discovery of novel INK4C small-molecule inhibitors to promote human and murine hematopoietic stem cell ex vivo expansion” (Scientific Reports, 2015)", "key": {"32D cells": {"tested_on": "32D cells", "assay": "MTT cell proliferation assay, general cytotoxicity", "format": "cell-based", "experimental": "First, a cell-proliferation assay was performed on the immortalized myeloblast-like cell line 32D cells to evaluate general cytotoxicity. […] We also evaluated cytotoxicity using primary hematopoietic cells.\n(§1) To evaluate the toxicity of our top compounds, we performed a cell proliferation assay using 32D cells as well as leukemia cell lines and myeloma cell lines. Weihi-3 cells were cultured at 37 °C under 5% CO2 in RPMI 1640 medium supplemented with 10%FBS. After 48 h, the supernatant was collected and filtered. 32D cells were cultured in RPMI 1640 with 10% FBS and 10% supernatant collected from Weihi-3 cells. 8,000 32D cells or leukemia cell line (KG-1 or KG-1a) or myeloma cell line (MM.1S or RPMI 8226) were plated in a 96-well plate in 198 μL culture media per well, and then cultured (37 °C, 5% CO2) overnight. 2 μL of serially diluted compounds dissolved in saline or DMSO were added to each well and incubated (37 °C, 5% CO2) for 72 h. The concentration of DMSO was equal to the one in corresponding compound group. 20 μL of MTT solution was added to each well and then incubated (37 °C, 5% CO2) for 4 h. The percentage of cell survival was determined using the MTT assay, as previously described. The data was analyzed using GraphPad Prism v6.0."}, "HSCs (CD34−LKS cells)": {"tested_on": "HSCs (CD34−LKS cells)", "assay": "single hematopoietic stem cell in vitro culture (nmEM colony) assay", "format": "cell-based, mouse", "conditions": "12.5 nM, 14-day treatment", "experimental": "We biologically assessed the 22 putative p18SMI compounds for their ability to maintain HSCs stem cell characteristics, to be specific self-renewal and multi-lineage differentiation, using single cell cultures. […] Thus, we employed single HSC culture to assess p18SMI compounds’ effect upon HSCs. CD34^−LKS cells from C57BL/6 mice were individually deposited into a 96-well plate (one cell/well). The single cell was cultured for 14 days in 100 μL of serum-free medium (Gibco) containing 100 ng/mL of mouse stem cell factor (SCF), 10 ng/mL of mouse interleukin-3 (IL-3), 25 ng/mL of human thrombopoietin (TPO), 2 U/mL of human erythropoietin (EPO) and differing concentrations of the p18SMI compound. Cells were cultured 14 days for in vitro colony formation and colonies were then cytospined and analyzed by flow cytometry to test the subpopulation of cultured cells. Neutrophils (n), macrophages (m), erythroblasts (E) or megakaryocytes (M) were identified by the cell marker of Gr-1, Mac-1, Ter-119 and CD41 using flow cytometry. The wells from each group that generated all lineages (nmEM) were counted and the ratio to the control group (DMSO) was calculated.\nSingle CD34^-LKS cells from C57BL/6 mice were individually deposited into each well of a 96-well plate along with 100 μL of serum free medium (Gibco) containing 100 ng/mL of mouse SCF, 10 ng/mL of mouse IL-3, 25 ng/mL of human TPO, 2 U/mL of human EPO and p18SMI compounds (different dilutions). Cells were cultured in a 37 °C, 5% CO2 incubator for 14 days for ex vivo colony formation. Colonies were then cytospined and analyzed using flow cytometry. Neutrophils (n), macrophages (m), erythroblasts (E) or megakaryocytes (M) were identified based on their cell surface maker, Gr-1, Mac-1, Ter119 and CD41. Cells were measured on an FACS analyzer (FACSArray, BD Biosciences). […] The wells from each group that generated all lineages (nmEM) were counted. The ratio of p18SMI compound treatment group to the control group (DMSO-treated) was calculated and fitted to a curve to calculate the ED50 value using GraphPad Prism v6.0."}, "KG-1": {"tested_on": "KG-1", "assay": "MTT proliferation assay on leukemia cell line", "format": "cell-based", "description": "(§2) With confirmation of compound 40 promoting the expansion of HSCs, we further examined whether it might also increase the risk of malignant diseases. In order to determine the effect of compound 40 on hematological tumorigenesis, proliferation of both leukemia cell lines (KG-1 and KG-1a) and myeloma cell lines (MM.1S and RPMI 8226) was further investigated by a standard MTT assay.\nas §1"}, "KG-1a": {"tested_on": "KG-1a", "assay": "MTT proliferation assay on leukemia cell line", "format": "cell-based", "description": "as §2, §1"}, "MM.1S": {"tested_on": "MM.1S", "assay": "MTT proliferation assay on myeloma cell line", "format": "cell-based", "description": "as §2, §1\n(§3) (1 picture or pasted object on this page, not shown here)"}, "RPMI 8226": {"tested_on": "RPMI 8226", "assay": "MTT proliferation assay on myeloma cell line", "format": "cell-based", "description": "as §2, §1, §3"}, "[1]": {"tested_on": "c-Kit-enriched mouse BM cells (HSPC, LT-HSCs)", "assay": "ex vivo bulk culture of c-Kit-enriched BM cells with flow cytometry phenotyping", "format": "cell-based", "conditions": "5 days culture with cytokines", "experimental": "To investigate the effect of p18SMI compounds on murine HSCs, c-Kit-enriched mouse BM cells were cultured for 5 days with media containing cytokines and the p18SMI compounds. […] Lin^−Sca-1^+(LS) cells were further analyzed using a combination of CD150 and CD48 (SLAM code) biomarkers for HSC identification. CD150^+ CD48^−KSLs (hereafter referred to as SLAM^+) cells are enriched for long term (LT)-HSCs.\nHSCs expansion medium consists of BIT9500 (Stem Cell Technologies) supplemented with 50 ng/mL recombinant mouse (rm) SCF, 20 ng/mL FMS-like tyrosine kinase 3 ligand (Flt3L) and 10 ng/mL thrombopoietin (Tpo) (all from PeproTech, Inc.). p18SMI compounds were added where indicated. Bone marrow cells were harvested from C57BL/6 mice and made into a single-cell suspension. After immunomagnetic c-Kit enrichment (cKit-conjugated microbeads [MiltenyiBiotec, Bergisch-Gladbach]), cells were washed and resuspended in HSCs expansion medium. After culture, total nucleated cell counts were obtained, and a fraction of mononuclear cells (MNCs) or whole bone marrow cells were stained for flow cytometry analysis. Frequency of each cell population was determined by independently analyzing more than 5 × 10^5 cells per sample in triplicate.\nFor stem-cell quantitation, the cultured bone marrow nucleated cells were co-stained with a combination of PE-Cy7 labeled antibodies against mouse CD3, CD4, CD8, B220, Gr-1, Mac-1 and TER-119, anti-Sca-1-PercpCy5.5, anti-CD48-PE and anti-CD150-APC (all from Biolegend). DAPI was used for dead-cell discrimination. Due to the presence of cytokine stem cell factor (SCF), we could not detect the c-Kit marker of those cultured cells. […] Flow cytometry and flow sorting were conducted with a CyAn (DakoCytomation) or a FACSCalibur system (BD Biosciences). FlowJo software Version 7.6.2 (TreeStar) was used for data analysis."}}, "note": "“Also recorded” adds a separate entry of the source."}
{"smiles": "O=C([O-])c1ccc(S(=O)(=O)NC2CCCCC2)cc1.[Na+]", "note": "[Compound 40, sodium 4-(N-cyclohexylsulfamoyl)benzoate]", "values": [{"measurement": "cytotoxicity toward 32D cells", "setting": "32D cells", "result": "did not show significant cytotoxicity; also recorded: not cytotoxic"}, {"measurement": "cytotoxic effects (cell viability, MTT)", "setting": "32D cells; 25 μM", "result": "did not show any cytotoxic effects"}, {"measurement": "cell viability (MTT)", "setting": "32D cells; 50 μM, thought to be due to cytotoxicity of the solvent DMSO", "result": "only slight decreases in cell viability"}, {"measurement": "increase of nmEM colonies as compared to the control group", "setting": "HSCs (CD34−LKS cells)", "result": 3.16, "unit": "fold"}, {"measurement": "enhancement of proliferation (MTT)", "setting": "KG-1; any concentration", "result": "did not enhance; also recorded: no activity"}, {"measurement": "effect on leukemia cell line", "setting": "KG-1; high concentration (20 μM)", "result": "no effect"}, {"measurement": "enhancement of proliferation (MTT)", "setting": "KG-1a; any concentration", "result": "did not enhance; also recorded: no activity"}, {"measurement": "effect on leukemia cell line", "setting": "KG-1a; high concentration (20 μM)", "result": "no effect"}, {"measurement": "enhancement of proliferation (MTT)", "setting": "MM.1S; 5 μM", "result": "did not enhance"}, {"measurement": "effect on myeloma cell line", "setting": "MM.1S; high concentration (20 μM)", "result": "no effect"}, {"measurement": "enhancement of proliferation (MTT)", "setting": "RPMI 8226; 5 μM", "result": "did not enhance"}, {"measurement": "effect on myeloma cell line", "setting": "RPMI 8226; high concentration (20 μM)", "result": "no effect"}, {"measurement": "increase of absolute number of Lin-Sca-1+ hematopoietic stem/progenitor cells (HSPC)", "setting": "[1]", "result": 2.29, "unit": "fold"}, {"measurement": "increase of number of LT-HSCs (CD150+CD48− SLAM+)", "setting": "[1]", "result": 2.61, "unit": "fold"}, {"measurement": "total cellularity (total cell)", "setting": "[1]", "result": "slight increase"}]}
